Experimental data reported in article PMC6106931 (Alzheimer's Research & Therapy, 2018).

Assay: Clinical safety, Study ALZ1005
Assay type: in vivo, human
Conditions: for patients with one or more TEAEs: Caucasian early AD; for Subjects with any TEAE / TEAE: Accidental overdose / TEAE: Anxiety / TEAE: Bladder cancer / TEAE: Conjunctivitis / TEAE: Dementia Alzheimer’s type / TEAE: Depressed mood / TEAE: Dermatitis allergic / TEAE: Dizziness / TEAE: Eczema vesicular / TEAE: Fatigue / TEAE: Gastrointestinal disorders / TEAE: General disorders and administration site conditions / TEAE: Headache / TEAE: Hypertension / TEAE: Infections and infestations / TEAE: Injury, poisoning and procedural complications / TEAE: Insomnia / TEAE: Irritability / TEAE: Musculoskeletal and connective tissue disorders / TEAE: Nasopharyngitis / TEAE: Nausea / TEAE: Neck pain / TEAE: Neoplasms benign, malignant and unspecified / TEAE: Nervous system disorders / TEAE: Post lumbar puncture syndrome / TEAE: Psoriasis / TEAE: Psychiatric disorders / TEAE: Renal and urinary disorders / TEAE: Renal colic / TEAE: Reproductive system and breast disorders / TEAE: Skin and subcutaneous tissue disorders / TEAE: Somnolence / TEAE: Syncope / TEAE: Urticaria / TEAE: Vascular disorders / TEAE: Vulvovaginal candidiasis / TEAE: Vulvovaginal pruritus: MCI due to AD
Protocol: Safety and tolerability were assessed during the study by recording adverse events (AEs), clinically significant abnormalities, clinical laboratory tests, ECG, and vital signs and by performing physical, neurological, and MRI examinations. All enrolled participants were included in the safety analysis population.

SMILES: C[C@@]1(c2cc(NC(=O)c3ccc(C#N)cn3)ccc2F)C=CSC(N)=N1 [atabecestat]
- relevant abnormal neurological finding (10 mg, one participant, day 28): mild ataxia
- events considered possibly related to the study drug (50-mg group): urticaria (n = 1)
- events considered probably related to the study drug (50-mg group): nausea (n = 1), dementia of Alzheimer’s type (n = 1), headache (n = 1)
- tolerability (Caucasian and Japanese, 10 and 50 mg, 4 weeks): well tolerated
- patients with one or more TEAEs (10-mg group, 3 of 15 patients): 20.0%
- patients with one or more TEAEs (50-mg group, 8 of 16 patients): 50.0%
- participants with no microhemosiderin deposits in the brain on MRI at end of treatment (Caucasian, atabecestat groups, 80.6% at baseline): 90.3%
- Subjects with any TEAE (10 mg, N=10): ^2 (20.0) n (%)
- TEAE: Accidental overdose (10 mg, N=10): ^1 (10.^0) n (%)
- TEAE: Anxiety (10 mg, N=10): ^0 n (%)
- TEAE: Bladder cancer (10 mg, N=10): ^0 n (%)
- TEAE: Conjunctivitis (10 mg, N=10): ^0 n (%)
- TEAE: Dementia Alzheimer’s type (10 mg, N=10): ^0 n (%)
- TEAE: Depressed mood (10 mg, N=10): ^0 n (%)
- TEAE: Dermatitis allergic (10 mg, N=10): ^0 n (%)
- TEAE: Dizziness (10 mg, N=10): ^0 n (%)
- TEAE: Eczema vesicular (10 mg, N=10): ^0 n (%)
- TEAE: Fatigue (10 mg, N=10): ^0 n (%)
- TEAE: Gastrointestinal disorders (10 mg, N=10): ^0 n (%)
- TEAE: General disorders and administration site conditions (10 mg, N=10): ^0 n (%)
- TEAE: Headache (10 mg, N=10): ^0 n (%)
- TEAE: Hypertension (10 mg, N=10): ^0 n (%)
- TEAE: Infections and infestations (10 mg, N=10): ^0 n (%)
- TEAE: Injury, poisoning and procedural complications (10 mg, N=10): ^2 (20.0) n (%)
- TEAE: Insomnia (10 mg, N=10): ^0 n (%)
- TEAE: Irritability (10 mg, N=10): ^0 n (%)
- TEAE: Musculoskeletal and connective tissue disorders (10 mg, N=10): ^0 n (%)
- TEAE: Nasopharyngitis (10 mg, N=10): ^0 n (%)
- TEAE: Nausea (10 mg, N=10): ^0 n (%)
- TEAE: Neck pain (10 mg, N=10): ^0 n (%)
- TEAE: Neoplasms benign, malignant and unspecified (10 mg, N=10): ^0 n (%)
- TEAE: Nervous system disorders (10 mg, N=10): ^0 n (%)
- TEAE: Post lumbar puncture syndrome (10 mg, N=10): ^2 (20.^0) n (%)
- TEAE: Psoriasis (10 mg, N=10): ^0 n (%)
- TEAE: Psychiatric disorders (10 mg, N=10): ^0 n (%)
- TEAE: Renal and urinary disorders (10 mg, N=10): ^0 n (%)
- TEAE: Renal colic (10 mg, N=10): ^0 n (%)
- TEAE: Reproductive system and breast disorders (10 mg, N=10): ^0 n (%)
- TEAE: Skin and subcutaneous tissue disorders (10 mg, N=10): ^0 n (%)
- TEAE: Somnolence (10 mg, N=10): ^0 n (%)
- TEAE: Syncope (10 mg, N=10): ^0 n (%)
- TEAE: Urticaria (10 mg, N=10): ^0 n (%)
- TEAE: Vascular disorders (10 mg, N=10): ^0 n (%)
- TEAE: Vulvovaginal candidiasis (10 mg, N=10): ^0 n (%)
- TEAE: Vulvovaginal pruritus (10 mg, N=10): ^0 n (%)
- Subjects with any TEAE (50 mg, N=10): ^6 (60.0) n (%)
- TEAE: Accidental overdose (50 mg, N=10): ^1 (10.^0) n (%)
- TEAE: Anxiety (50 mg, N=10): ^1 (10.^0) n (%)
- TEAE: Bladder cancer (50 mg, N=10): ^0 n (%)
- TEAE: Conjunctivitis (50 mg, N=10): ^0 n (%)
- TEAE: Dementia Alzheimer’s type (50 mg, N=10): ^1 (10.^0) n (%)
- TEAE: Depressed mood (50 mg, N=10): ^1 (10.^0) n (%)
- TEAE: Dermatitis allergic (50 mg, N=10): ^1 (10.^0) n (%)
- TEAE: Dizziness (50 mg, N=10): ^0 n (%)
- TEAE: Eczema vesicular (50 mg, N=10): ^1 (10.^0) n (%)
- TEAE: Fatigue (50 mg, N=10): ^0 n (%)
- TEAE: Gastrointestinal disorders (50 mg, N=10): ^1 (10.0) n (%)
- TEAE: General disorders and administration site conditions (50 mg, N=10): ^0 n (%)
- TEAE: Headache (50 mg, N=10): ^1 (10.^0) n (%)
- TEAE: Hypertension (50 mg, N=10): ^0 n (%)
- TEAE: Infections and infestations (50 mg, N=10): ^1 (10.^0) n (%)
- TEAE: Injury, poisoning and procedural complications (50 mg, N=10): ^2 (20.^0) n (%)
- TEAE: Insomnia (50 mg, N=10): ^0 n (%)
- TEAE: Irritability (50 mg, N=10): ^1 (10.^0) n (%)
- TEAE: Musculoskeletal and connective tissue disorders (50 mg, N=10): ^1 (10.^0) n (%)
- TEAE: Nasopharyngitis (50 mg, N=10): ^0 n (%)
- TEAE: Nausea (50 mg, N=10): ^1 (10·^0) n (%)
- TEAE: Neck pain (50 mg, N=10): ^1 (10.^0) n (%)
- TEAE: Neoplasms benign, malignant and unspecified (50 mg, N=10): ^0 n (%)
- TEAE: Nervous system disorders (50 mg, N=10): ^2 (^20^.0) n (%)
- TEAE: Post lumbar puncture syndrome (50 mg, N=10): ^1 (10.^0) n (%)
- TEAE: Psoriasis (50 mg, N=10): ^0 n (%)
- TEAE: Psychiatric disorders (50 mg, N=10): ^2 (^20^.0) n (%)
- TEAE: Renal and urinary disorders (50 mg, N=10): ^1 (10.^0) n (%)
- TEAE: Renal colic (50 mg, N=10): ^1 (10.^0) n (%)
- TEAE: Reproductive system and breast disorders (50 mg, N=10): ^1 (10.^0) n (%)
- TEAE: Skin and subcutaneous tissue disorders (50 mg, N=10): ^2 (^20^.0) n (%)
- TEAE: Somnolence (50 mg, N=10): ^0 n (%)
- TEAE: Syncope (50 mg, N=10): ^0 n (%)
- TEAE: Urticaria (50 mg, N=10): ^0 n (%)
- TEAE: Vascular disorders (50 mg, N=10): ^0 n (%)
- TEAE: Vulvovaginal candidiasis (50 mg, N=10): ^1 (10.^0) n (%)
- TEAE: Vulvovaginal pruritus (50 mg, N=10): ^1 (10.^0) n (%)
- Subjects with any TEAE (JNJ-54861911 total, N=20): ^8 (40.0) n (%)
- TEAE: Accidental overdose (JNJ-54861911 total, N=20): ^2 (10.0) n (%)
- TEAE: Anxiety (JNJ-54861911 total, N=20): ^1 (5.0) n (%)
- TEAE: Bladder cancer (JNJ-54861911 total, N=20): ^0 n (%)
- TEAE: Conjunctivitis (JNJ-54861911 total, N=20): ^0 n (%)
- TEAE: Dementia Alzheimer’s type (JNJ-54861911 total, N=20): ^1 (5.0) n (%)
- TEAE: Depressed mood (JNJ-54861911 total, N=20): ^1 (5.0) n (%)
- TEAE: Dermatitis allergic (JNJ-54861911 total, N=20): ^1 (5.0) n (%)
- TEAE: Dizziness (JNJ-54861911 total, N=20): ^0 n (%)
- TEAE: Eczema vesicular (JNJ-54861911 total, N=20): ^1 (5.0) n (%)
- TEAE: Fatigue (JNJ-54861911 total, N=20): ^0 n (%)
- TEAE: Gastrointestinal disorders (JNJ-54861911 total, N=20): ^1 (5.0) n (%)
- TEAE: General disorders and administration site conditions (JNJ-54861911 total, N=20): ^0 n (%)
- TEAE: Headache (JNJ-54861911 total, N=20): ^1 (5.0) n (%)
- TEAE: Hypertension (JNJ-54861911 total, N=20): ^0 n (%)
- TEAE: Infections and infestations (JNJ-54861911 total, N=20): ^1 (5.0) n (%)
- TEAE: Injury, poisoning and procedural complications (JNJ-54861911 total, N=20): ^4 (20.0) n (%)
- TEAE: Insomnia (JNJ-54861911 total, N=20): ^0 n (%)
- TEAE: Irritability (JNJ-54861911 total, N=20): ^1 (5.0) n (%)
- TEAE: Musculoskeletal and connective tissue disorders (JNJ-54861911 total, N=20): ^1 (5.0) n (%)
- TEAE: Nasopharyngitis (JNJ-54861911 total, N=20): ^0 n (%)
- TEAE: Nausea (JNJ-54861911 total, N=20): ^1 (5.0) n (%)
- TEAE: Neck pain (JNJ-54861911 total, N=20): ^1 (5.0) n (%)
- TEAE: Neoplasms benign, malignant and unspecified (JNJ-54861911 total, N=20): ^0 n (%)
- TEAE: Nervous system disorders (JNJ-54861911 total, N=20): ^2 (10.0) n (%)
- TEAE: Post lumbar puncture syndrome (JNJ-54861911 total, N=20): ^3 (15.0) n (%)
